Like-named read-outs stand apart in the source and are kept apart here.
Columns and labels:
A673 [1] = assay: A673 Lactate OP; format: cell-based; conditions: Homo sapiens; A673 cells
MiaPaCa [2] = assay: MiaPaCa CTG; format: cell-based; conditions: Homo sapiens, MIA PaCa-2; MiaPaCa cells
A673 [3] = assay: A673 CTG; format: cell-based; conditions: Homo sapiens; A673 cells
LDH(A) = LDH(A) (Homo sapiens, UniProt P00338); assay: LDH(A) biochemical IC50
[4] = PK AUC after IV and PO dosing; conditions: in vivo
LDA(B) = LDA(B) (Homo sapiens, UniProt P07195); assay: LDA(B) biochemical IC50
lactate dehydrogenase = lactate dehydrogenase (Homo sapiens, UniProt P00338); assay: SPR binding (+NADH)
MiaPaCa [5] = assay: MiaPaCa Lactate OP; format: cell-based; conditions: Homo sapiens, MIA PaCa-2; MiaPaCa cells
pmel-1 CD8+ T cells = assay: Flow cytometry of pmel-1 CD8+ T cell differentiation (CD44, CD62L, Sca-1); format: cell-based, mouse; conditions: NCI-737 1 μM
human CD8+ T cells = assay: Seahorse mitochondrial stress test (OCR, ECAR, SRC), human CD8+ T cells; format: cell-based; conditions: both IL-21 and IL-2
mouse CD8+ T cells = assay: Seahorse mitochondrial stress test (OCR, ECAR, SRC), mouse CD8+ T cells; format: cell-based; conditions: NCI-737 1 μM
Description: (§1) Except where otherwise specified, all experiments were performed with murine splenic CD8+ T cells isolated with […] Technologies EasySep™ Mouse CD8+ T Cell Isolation Kit (catalog #19853). Following isolation, cells were resuspended at 1×10^6 cells/ml in T cell culture medium: RPMI 1640 medium (Thermo 11875093) containing 10% fetal bovine serum (FBS), 1× Glutamax (Life Technologies #35050-061), 1 mM sodium pyruvate, 0.1% β-mercaptoethanol, and penicillin/streptomycin. Cells were plated in 24-well tissue culture plates precoated with mouse anti-CD3 (2 μg/ml) and cultured with soluble mouse anti-CD28 (2 μg/ml) for 48 h. After incubation, cells were pooled, washed twice in media, and re-plated at 1×10^6 cells/ml. […] Unless otherwise specified, cells were stimulated for 48 h before being harvested. Where noted, cells were treated (1 μM) with a novel, pyrazole-based LDH inhibitor (NCI-737, herein denoted as NCI-737) that was developed under the auspices of the NCI Experimental Therapeutics Program 29.
The oxygen consumption rates (OCR) and extracellular acidification rates (ECAR) were recorded using a Seahorse XFe96 Analyzer (Agilent). Cells were washed and resuspended in Agilent XF Assay Medium supplemented with 25 mM glucose, 1 mM sodium pyruvate, and 2 mM L-Glutamine. Cells were plated on Seahorse Assay plates at 0.2×10^6 cells/well and during the assay were exposed to 1 μM oligomycin, 1.5 μM trifluoromethoxy carbonylcyanide phenylhydrazone (“FCCP”), 100 nM rotenone, and 1 μM antimycin A, as indicated.

[6] = system: murine splenic CD8+ T cells; assay: RNA-Seq gene expression; format: cell-based, mouse
Description: as §1
Total RNA was extracted using an RNA miniprep kit (Zymo Research), and 500 ng RNA was used for library preparation. RNA-Seq libraries were prepared using mRNA HyperPrep Kits (KK8580, Kapa Biosystems) and indexed with NEXTflex DNA Barcodes-24. After final amplification, samples were loaded to 2% E-Gel pre-cast gels (ThermoFisher), and 250 to 400 bp DNA fragments were recovered and purified with Zymoclean Gel DNA Recovery Kit […]. After quantification by Qubit (Invitrogen), barcoded samples were mixed and sequenced on an Illumina HiSeq3000 platform. Sequenced reads (50 bp, single end) were obtained with the Illumina CASAVA pipeline and mapped to the mouse genome mm10 (GRCm38, December 2011) using Bowtie 2.2.649 and Tophat 2.2.149. Only uniquely mapped reads were retained. Raw counts that fell on exons were calculated and normalized by using RPKM (Reads Per Kilobase per Million mapped reads). Differentially expressed genes were identified with the R Bioconductor package edgeR50, and the expression heat maps were generated with the R package “pheatmap”. Metabolic genes were extracted from the KEGG pathway database, including those corresponding to Fatty Acid Biosynthesis/Degradation, Ox/Phos, Pyruvate metabolism, amino sugar and nucleotide sugar metabolism, pentose phosphate pathway, the citric acid cycle, and glycolysis/gluconeogenesis. Metabolic genes that overlapped with RNA-Seq data were subsequently shown in heat maps.

[7] = system: murine splenic CD8+ T cells; assay: U-13C-glucose tracer study; format: cell-based, mouse; conditions: NCI-737 1 μM
Description: as §1, with “Where noted, cells were treated (1 μM) with a novel, pyrazole-based LDH inhibitor (NCI-737, herein denoted as NCI-737) that was developed under the auspices of the NCI Experimental Therapeutics Program 29.” left out
(§2) Cells were then washed with media supplemented with dialyzed fetal bovine serum (“FBS”) (Thermo-Fischer #A3382001), replated in RPMI 1640 medium containing 10% dialyzed FBS, 1× Glutamax (ThermoFisher #35050061), 1 mM sodium pyruvate, 0.1% β-mercaptoethanol, and penicillin-streptomycin, and re-stimulated with same cytokine treatment for 5 h. […] Cell extracts were analyzed using a quadrupole-orbitrap mass spectrometer (Q Exactive, Thermo Fisher Scientific, San Jose, CA) coupled to hydrophilic interaction chromatography via electrospray ionization. […] Data were analyzed using EL-MAVEN software. […]

[8] = system: murine splenic CD8+ T cells; assay: Media measurements of lactate secretion and glucose consumption (YSI 2900 analyzer); format: cell-based, mouse; conditions: IL-2- or IL-21-stimulated cells; NCI-737 1 μM
Description: as §1, with “Where noted, cells were treated (1 μM) with a novel, pyrazole-based LDH inhibitor (NCI-737, herein denoted as NCI-737) that was developed under the auspices of the NCI Experimental Therapeutics Program 29.” left out
as §2

B16 melanoma (B16KVP) = assay: Mouse tumor model and adoptive transfer; format: in vivo
[9] = system: murine splenic CD8+ T cells; assay: LC-MS metabolomics of intracellular metabolites; format: cell-based, mouse; conditions: NCI-737 1 μM
Description: as §1
Cells were then washed with media supplemented with dialyzed fetal bovine serum (“FBS”) (Thermo-Fischer #A3382001), replated in RPMI 1640 medium containing 10% dialyzed FBS, 1× Glutamax (ThermoFisher #35050061), 1 mM sodium pyruvate, 0.1% β-mercaptoethanol, and penicillin-streptomycin, and re-stimulated with same cytokine treatment for 5 h. For ^13C labelling, cells were instead replated in media containing 2 g/L U^13C-glucose (Cambridge Isotope Laboratories #CLM-1396) for 6 h. 3×10^6 cells/replicate (3-4 replicates/treatment) were then transferred to microcentrifuge tubes and centrifuged for 1 min at 6000×g. Room temperature PBS was added to wash cell pellets followed by another round of centrifugation for 1 min. Pellets were then immediately resuspended in 150 μl of ice cold extraction solvent (40:40:20 acetonitrile:methanol:water+0.5% formic acid) for 5 min. After incubation, 13.2 μl of 15% ammonium bicarbonate, was added and samples were centrifuged for 15 min at maximum speed at 4° C. Supernatant containing cellular metabolites was transferred to a fresh tube, frozen in dry ice, and stored at −80° C. Cell extracts were analyzed using a quadrupole-orbitrap mass spectrometer (Q Exactive, Thermo Fisher Scientific, San Jose, CA) coupled to hydrophilic interaction chromatography via electrospray ionization. LC separation was on a XBridge BEH Amide column (2.1 mm×150 mm, 2.5 μm particle size; Waters, Milford, MA) using a gradient of solvent A (20 mM ammonium acetate, 20 mM ammonium hydroxide in 95:5 water: acetonitrile, pH 9.45) and solvent B (acetonitrile). The flow rate was 150 μl/min, column temperature was 25° C., autosampler temperature was 5° C., and injection volume was 10 μL. The LC gradient was: 0 min, 90% B; 2 min, 85% B; 3 min, 75% B; 7 min, 75% B; 8 min, 70% B; 9 min, 70% B; 10 min, 50% B; 12 min, 50% B; 13 min, 25% B; 14 min, 25% B; 16 min, 0% B; 21 min, 0% B; 22 min, 90% B; 25 min, 90% B. Autosampler temperature was 5° C., and injection volume was 10 μl. The mass spectrometer was operated in negative ion mode to scan from m/z 70 to 1000 at 1 Hz and a resolving power of 140,000 45. Data were analyzed using EL-MAVEN software. Isotope labeling was corrected for natural 13C abundance47. Media measurements were acquired using a YSI 2900 Series Biochemical Analyzer (Xylem).

[10] = PO 50 mg/kg, read-out: PO 50 mg/kg AUC

LDA(B), sequence (P07195 whole entry): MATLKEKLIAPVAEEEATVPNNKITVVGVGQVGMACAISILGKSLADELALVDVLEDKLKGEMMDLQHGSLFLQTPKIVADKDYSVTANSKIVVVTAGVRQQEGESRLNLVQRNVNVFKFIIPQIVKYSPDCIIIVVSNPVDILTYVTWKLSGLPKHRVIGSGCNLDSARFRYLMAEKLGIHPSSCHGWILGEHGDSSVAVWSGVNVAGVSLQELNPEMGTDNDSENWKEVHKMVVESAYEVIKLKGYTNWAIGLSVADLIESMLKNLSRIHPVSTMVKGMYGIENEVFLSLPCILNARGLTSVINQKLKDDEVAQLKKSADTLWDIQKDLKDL

Cc1ccc(C#Cc2cc(-c3nn(-c4nc(C(=O)O)cs4)c(CC4CC4)c3Cc3ccc(S(N)(=O)=O)c(F)c3)ccc2F)s1 [Compound 390006]
EC50 (A673 [1]): 349 nM | EC50 (MiaPaCa [2]): 355 nM | EC50 (A673 [3]): 305 nM | IC50 (LDH(A)): 80 nM | AUC ([4]; IV 10 mg/kg): 10600 ng·h/mL | AUC [4, 10]: 31400 ng·h/mL | IC50 (LDA(B)): 53 nM | SPR ka (+NADH) (lactate dehydrogenase): 15000 M⁻¹ s⁻¹ | SPR kd (+NADH) (lactate dehydrogenase): <1e-06 s⁻¹ | EC50 (MiaPaCa [5]): 283 nM

Cc1ccc(C#Cc2cccc(-c3nn(-c4nc(C(=O)O)cs4)c(CC4CC4)c3Cc3ccc(S(N)(=O)=O)c(F)c3)c2)s1 [Compound 420737]
EC50 (A673 [1]): 344 nM | TSCM cells (pmel-1 CD8+ T cells; IL-2-treated pmel-1 cells): restored TSCM cells in IL-2-treated cells to the levels observed with IL-21 | TSCM cells (pmel-1 CD8+ T cells; IL-21-treated pmel-1 cells): synergized with IL-21 to generate TSCM cells | ECAR (human CD8+ T cells): decreased | SRC (human CD8+ T cells): raised | EC50 (MiaPaCa [2]): 319 nM | ECAR (mouse CD8+ T cells; IL-2-treated cells): decreased | OCR (mouse CD8+ T cells; IL-2-treated cells): significantly increased | SRC (mouse CD8+ T cells; IL-2-treated cells): significantly increased | ECAR (mouse CD8+ T cells; IL-21-treated cells): did not significantly alter | SRC (mouse CD8+ T cells; IL-21-treated cells): did not significantly alter | basal OCR (mouse CD8+ T cells; IL-21-treated cells): did not significantly alter | EC50 (A673 [3]): 221 nM | transcripts for exhaustion-associated transcription factors Nr4a1, Nr4a2, Nrfa3, Prdm1 ([6]; IL-2-induced, addition of NCI-737): decreased by the addition of NCI-737 to levels similar to that observed in cells cultured with IL-21 | induction of Ldha by IL-2 ([6]; IL-2 context, NCI-737 1 μM): prevented the induction | levels of Ldhb ([6]; IL-2 context, NCI-737 1 μM): increased | XBP1 transcript expression ([6]; induced by IL-2, NCI-737): inhibited | transcripts for exhaustion markers Lag3, Pdcd1, Cd244, Havcr2 ([6]; induced by IL-21, addition of NCI-737): repressed | IC50 (LDH(A)): 68 nM | AUC ([4]; IV 10 mg/kg): 16500 ng·h/mL | AUC [4, 10]: 53400 ng·h/mL | relative contribution of glucose into the TCA cycle ([7]; IL-2-treated cells): higher relative contribution | isotopomer distribution ([7]; IL-21-stimulated cells): little effect | glucose consumption [8]: reduced | lactate secretion [8]: reduced | IC50 (LDA(B)): 44 nM | SPR ka (+NADH) (lactate dehydrogenase): 16000 M⁻¹ s⁻¹ | SPR kd (+NADH) (lactate dehydrogenase): <1e-06 s⁻¹ | EC50 (MiaPaCa [5]): 236 nM | antitumor effect of adoptively transferred pmel-1 CD8+ T cells (B16 melanoma (B16KVP); IL-2-treated cells, NCI-737 1 μM only during in vitro expansion): augmented the antitumor effect to the level of IL-21-treated cells | antitumor effect of adoptively transferred pmel-1 CD8+ T cells (B16 melanoma (B16KVP); cells generated with IL-21 and NCI-737 (1 μM, in vitro only)): the most potent | increase in the NADH/NAD+ ratio ([9]; IL-2-treated cells): ~100 fold | intracellular pyruvate ([9]; IL-2-treated cells): markedly increased | 2-hydroxyglutarate (2HG) ([9]; IL-2 setting): decreased | increase in glycolytic intermediates and FGAR ([9]; IL-2 setting): > 4 fold | NADH/NAD+ ratio ([9]; IL-21 stimulated cells): slightly raised | intracellular pyruvate levels ([9]; IL-21 stimulated cells): did not alter | metabolite levels ([9]; IL-21 stimulated cells): little effect | lactate in cells ([9]; cells stimulated with either IL-2 or IL-21): lowered
